Earlier results on two molecules are cited in publication PMC3762478 (Bioorganic & medicinal chemistry letters, 2013).

SMILES strings stand for the structures. Like-named read-outs stand apart in the source and are kept apart here. Bounds are passed on as bounds.

Data set [1] relates to −1 receptor (sigma-1). To be noted: rat brain homogenates.
For data set [2], the system named is −1 receptor (sigma-1). To be noted: guinea-pig brain membranes.

Consider `O=c1sc2cc(CCCF)ccc2n1CCN1CCCCCC1` [Compound 2], for which the “selectivity over −2 receptor” value in the data set on −1 receptor (sigma-1) [1] is > 100,000 fold. For the same molecule, the Ki on −1 receptor (sigma-1) [1] (read-out: Ki for −1 receptor) was 2.5 pM.
For `CCCc1ccc2c(c1)sc(=O)n2CCN1CCCCCC1` [Compound 1], in the data set with −1 receptor (sigma-1) [2], the “selectivity over −2 receptor” value is given as “over 1000 fold”. The Ki on −1 receptor (sigma-1) [2] (read-out: Ki for −1 receptor) was 560 pM.

The term Ki denotes a dissociation constant, usually derived from enzyme kinetics or from competition with a known ligand.
